Data reported in BindingDB's records for PubMed 37939861 (Hebei Normal University).
pIC50: −log10 of the molar value.

Assay: Inhibition of PCSK9 transcriptional activity in human HepG2 cells by luciferase reporter based assay

| pIC50 | Structure (SMILES) |
| --- | --- |
| 5.40 | CC(C)(C)OC(=O)N1CCN(Cc2ccc3nc(NC(=O)c4ccc(S(=O)(=O)NCCC#N)cc4)sc3c2)CC1 |
| 5.19 | CCOC(=O)c1ccc2nc(N3CCN(NC(=O)c4ccc(Cl)c(Cl)c4)CC3)sc2c1 |
